# Source: US12279611B2, “Method for controlling insects where an alkoxylated glycerol is applied to soil” (priority 2016, dated 2025)
# “And” between values parts separate entries of the source, which are not always exact repeats. Equal values may be shown once.
# Legend:
# [1] = Wetting front test (soil migration by capillary action in soil-filled tubes, wetting front measured by caliper); type: physicochemical; details: for Migration: single replicates
# Procedure: • Polymer A: Polymer formed from glycerol and ethylene oxide and propylene oxide units; molecular weight about 3000 g/mol, hydroxyl number about 56 mg KOH/g, clear liquid, dynamic viscosity at 25° C. about 582 cP, density at 25° C. about 1.02 g/cm^3. • Polymer B: Liquid composition, 70 wt % Polymer A, 10 wt % nonionic surfactant (ethoxylated alcohol, HLB about 13, hydroxyl number about 125), 10 wt % anionic surfactant (dodecylbenzene calcium sulfonate), and 10 wt % 1,2-propylene glycol. • Surfactant A: liquid, nonionic ethoxylated tristyrylphenol, HLB 10-11. • Surfactant B: nonionic EO-PO-EO Triblockcopolymer, average molecular weight about 2500 Da, pour point −4° C., HLB 1-7, solubility in water at least 10 wt % at 25° C. • Surfactant C: Alkyl polyethylene glycol ether based on C10-Guerbet alcohol, HLB about 13, solubility in water at least 10 wt % at 23° C. • Surfactant D: Calcium dodecylbenzene sulfonate. • Silica Thickener: White powder, hydrophilic fumed silica, specific surface area (BET) about 200 m^2/g; average primary particle diameter 12 nm, tapped density about […]. Wetting Front Test Procedure
# A fine nylon netting was adhered (Polyseamseal® Caulk, Henkel Corp) to one end each of 15 cm×1.5 cm plastic tubes. Tubes were filled with Greenville silt loam (sand:silt:clay, 22:58:20). As soil was added, tubes were tapped on the lab bench to loosely pack the soil (approximately 50 g soil per tube). Aqueous solutions of subject treatments were prepared. Solutions (4 ml) were added to glass beakers (50 ml capacity), and the soil-filled tubes were placed in the beakers. Each treatment was replicated 4 times. […] Means were separated at the […] via ANOVA followed by Tukey's HSD.
# [2] = Wetting front test with segment analysis (soil segments extracted with acetonitrile, broflanilide quantified by HPLC-UV); type: physicochemical; details: Example 3; for Concentration of broflanilide in segment 0-2 cm (average of four replicates): soil segment 0-2 cm; for Concentration of broflanilide in segment 2-4 cm (average of four replicates): soil segment 2-4 cm; for Concentration of broflanilide in segment 4-6 cm (average of four replicates): soil segment 4-6 cm; for Concentration of broflanilide in segment 6-8 cm (average of four replicates): soil segment 6-8 cm; for Concentration of broflanilide in segment 8-10 cm (average of four replicates): soil segment 8-10 cm
# Procedure: A fine nylon netting was adhered (Polyseamseal® Caulk, Henkel Corp) to one end each of 15 cm×1.5 cm plastic tubes. Tubes were filled with Greenville silt loam (sand:silt:clay, 22:58:20). As soil was added, tubes were tapped on the lab bench to loosely pack the soil (approximately 50 g soil per tube). Aqueous solutions of subject treatments were prepared. Solutions (4 ml) were added to glass beakers (50 ml capacity), and the soil-filled tubes were placed in the beakers. Each treatment was replicated 4 times. The solutions migrated upward into the soil via capillary action, and after 20 hours, the wetting front was measured in three locations using a digital caliper. Means were separated at the […] via ANOVA followed by Tukey's HSD. An aqueous solution comprising 600 ppm broflanilide was made from an aqueous suspension concentrate comprising 100 g/l broflanilide. Optionally 3000 ppm of Polymer B was added. The wetting front test was made as described above with another analytical method: The soil filled tubes (four replicates for both the sample with and without polymer) were separated in seven segments with each 2 cm long. The segment “0-2 cm” was the segment on the bottom which had direct contact to the aqueous solution of broflanilide. The segments (about 4.0 g each) were extracted twice with acetonitrile. The amount of broflanilide was quantified via HPLC with UV detection.
# [3] = Example 2, 600 ppm broflanilide + 1500 ppm Polymer A, Greenville silt loam, 20 hours
# [4] = Example 2, 600 ppm broflanilide + 3000 ppm Polymer A, Greenville silt loam, 20 hours
# [5] = Example 2, 600 ppm broflanilide + 4200 ppm Polymer A, Greenville silt loam, 20 hours
# [6] = Example 4, 600 ppm broflanilide + 300 ppm Polymer A, Greenville silt loam, 20 hours
# [7] = Example 4, 600 ppm broflanilide + 600 ppm Polymer A, Greenville silt loam, 20 hours
# [8] = Example 4, 600 ppm broflanilide + 1500 ppm Polymer A, Greenville silt loam, 20 hours
# [9] = Example 4, 600 ppm broflanilide, no polymer, Greenville silt loam, 20 hours
# [10] = 600 ppm broflanilide + 3000 ppm Polymer B
# [11] = 600 ppm broflanilide, no polymer
# [12] = Example 1, 600 ppm chlorfenapyr + 1200 ppm Polymer B, Greenville silt loam, 20 hours
# [13] = Example 1, 600 ppm chlorfenapyr + 3000 ppm Polymer B, Greenville silt loam, 20 hours
# [14] = Example 5, 600 ppm fipronil + 1200 ppm Polymer B, after 2 h
# [15] = Example 5, 600 ppm fipronil + 1200 ppm Polymer B, after 20 h
# [16] = Example 5, 600 ppm fipronil + 3000 ppm Polymer B, after 2 h
# [17] = Example 5, 600 ppm fipronil + 3000 ppm Polymer B, after 20 h
# [18] = Example 5, 600 ppm fipronil, no polymer, after 20 h
compound,measurement,setting,value
"CN(C(=O)c1ccccc1)c1cccc(C(=O)Nc2c(Br)cc(C(F)(C(F)(F)F)C(F)(F)F)cc2C(F)(F)F)c1F [Broflanilide, broflanilide]",Average Migration,[1]; [3],9.29 cm
same,Migration,[1]; [3],8.89 cm and 9.34 cm (2×) and 9.6 cm
same,Average Migration,[1]; [4],8.74 cm
same,Migration,[1]; [4],8.53 cm and 8.62 cm and 8.60 cm and 9.19 cm
same,Average Migration,[1]; [5],8.79 cm
same,Migration,[1]; [5],8.37 cm and 9.22 cm and 8.74 cm and 8.82 cm
same,Average Migration,[1]; [6],7.78 cm
same,Migration,[1]; [6],7.90 cm and 7.72 cm and 7.71 cm and 7.80 cm
same,Average Migration,[1]; [7],7.98 cm
same,Migration,[1]; [7],7.98 cm and 7.77 cm and 8.04 cm and 8.02 cm
same,Average Migration,[1]; [8],7.72 cm
same,Migration,[1]; [8],7.73 cm and 7.69 cm and 7.82 cm and 7.64 cm
same,Average Migration,[1]; [9],6.89 cm
same,Migration,[1]; [9],7.32 cm and 6.75 cm and 6.61 cm and 6.88 cm
same,Concentration of broflanilide in segment 0-2 cm (average of four replicates),[2]; [10],170 ppm
same,Concentration of broflanilide in segment 2-4 cm (average of four replicates),[2]; [10],36 ppm
same,Concentration of broflanilide in segment 4-6 cm (average of four replicates),[2]; [10],16 ppm
same,Concentration of broflanilide in segment 6-8 cm (average of four replicates),[2]; [10],4 ppm
same,Concentration of broflanilide in segment 8-10 cm (average of four replicates),[2]; [10],0 ppm
same,Concentration of broflanilide in segment 0-2 cm (average of four replicates),[2]; [11],127 ppm
same,Concentration of broflanilide in segment 2-4 cm (average of four replicates),[2]; [11],51 ppm
same,Concentration of broflanilide in segment 4-6 cm (average of four replicates),[2]; [11],3 ppm
same,Concentration of broflanilide in segment 6-8 cm (average of four replicates),[2]; [11],0 ppm
same,Concentration of broflanilide in segment 8-10 cm (average of four replicates),[2]; [11],0 ppm
"CCOCn1c(-c2ccc(Cl)cc2)c(C#N)c(Br)c1C(F)(F)F [Chlorfenapyr, chlorfenapyr]",Migration,"[1]; Example 1, 600 ppm chlorfenapyr (Phantom SC), no polymer, Greenville silt loam, 20 hours",7.7780 cm and 7.5100 cm and 7.6600 cm and 7.7640 cm
same,Average Migration,[1]; [12],8.39 cm
same,Migration,[1]; [12],8.3770 cm and 8.3350 cm and 8.4290 cm and 8.4350 cm
same,Average Migration,[1]; [13],8.81 cm
same,Migration,[1]; [13],8.7420 cm and 8.7610 cm and 8.8760 cm and 8.8460 cm
same,Average Migration,"[1]; Example 1, 600 ppm chlorfenapyr, no polymer, Greenville silt loam, 20 hours",7.68 cm
"N#Cc1nn(-c2c(Cl)cc(C(F)(F)F)cc2Cl)c(N)c1[S+]([O-])C(F)(F)F (stereo not drawn) [Fipronil, fipronil]",Migration,"[1]; Example 5, 600 ppm fipronil (Termidor SC), no polymer, after 2 h",6.0 cm and 6.1 cm and 6.5 cm and 6.4 cm
same,Average Migration,[1]; [14],6.70 cm
same,Migration,[1]; [14],6.5 cm and 7.0 cm and 6.7 cm and 6.6 cm
same,Average Migration,[1]; [15],7.93 cm
same,Migration,[1]; [15],7.7 cm and 8.0 cm (3×)
same,Average Migration,[1]; [16],6.98 cm
same,Migration,[1]; [16],7.1 cm and 7.0 cm (2×) and 6.8 cm
same,Average Migration,[1]; [17],8.40 cm
same,Migration,[1]; [17],8.5 cm and 8.3 cm and 8.4 cm (2×)
same,Average Migration,"[1]; Example 5, 600 ppm fipronil, no polymer, after 2 h",6.25 cm
same,Average Migration,[1]; [18],7.38 cm
same,Migration,[1]; [18],7.0 cm and 7.4 cm (2×) and 7.7 cm
